Key:
[1] = tested on: differentiated 3T3-L1 mouse adipocyte cells; test: Adipocyte glucose consumption in differentiated 3T3-L1 cells (colorimetric glucose assay of the medium); format: cell-based; details: 3T3-L1, 24 h, compound 10 μM, loss of glucose from culture medium, mean fold change (compound/DMSO)
Procedure, shortened: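 Differentiated 3T3-L1 mouse adipocytes (rosiglitazone/dexamethasone/IBMX/insulin induction, day 11) treated 24 h with compounds at 10 μM, 0.1% DMSO final. Medium glucose measured colorimetrically; consumption taken as glucose loss from medium versus cell-free control, expressed as mean fold change compound/DMSO ±SD.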

[2] = target: T1, His6 tagged human recombinant FABP4 (Homo sapiens, UniProt P15090); test: FABP4 TR-FRET assay: displacement of fluorescent fatty acid BODIPY FL C12; details: inhibition of BODIPY FL C12 binding to His6-FABP4; 1.2 μL of 1.085 mM compound in DMSO per well; triplicates, mean percent inhibition
T1 construct: purchased Cayman Chemicals 10009549
Procedure, shortened: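 TR-FRET displacement of BODIPY FL C12 from His6-FABP4 bound by Tb-anti-His6 antibody, in Tris pH 7.4 buffer with γ-globulins, NP-40 and DTT; compound stock 1.085 mM in DMSO. Read after 10 min at room temperature as 520/615 nm ratio; mean % inhibition versus DMSO from triplicates.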

T1 sequence (P15090 whole entry): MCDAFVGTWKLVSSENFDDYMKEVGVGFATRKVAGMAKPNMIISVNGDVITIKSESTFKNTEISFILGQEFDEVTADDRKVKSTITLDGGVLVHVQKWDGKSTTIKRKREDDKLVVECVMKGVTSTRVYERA

**Q.** With `CCCCc1ccc2nc(N(C)CC(=O)O)cc(-c3ccc(C#N)cc3)c2c1` [2-{[6-butyl-4-(4-cyanophenyl)quinolin-2-yl](methyl)amino}acetic acid] as the compound, how does the fold induction at 10 µM [1] read?
**A.** 1.18

**Q.** And the inhibition at 1085 µM (stock) [2]?
**A.** 16.8%

**Q.** For `CCCCc1ccc2nc(N(C)CC(=O)O)cc(-c3ccc(F)cc3)c2c1` [2-{[6-butyl-4-(4-fluorophenyl)quinolin-2-yl](methyl)amino}acetic acid], which fold induction at 10 µM [1] is on record?
**A.** 1.49

**Q.** What about the inhibition at 1085 µM (stock) [2] of the same compound?
**A.** 58.6%

**Q.** `CCCCc1ccc2nc(N(C)CC(=O)O)cc(-c3ccc(O)cc3)c2c1` [2-{[6-butyl-4-(4-hydroxyphenyl)quinolin-2-yl](methyl)amino}acetic acid] was tested. Which fold induction at 10 µM [1] did it give?
**A.** 1.26

**Q.** What about the inhibition at 1085 µM (stock) [2] of the same compound?
**A.** 60.5%

**Q.** With `CCCCc1ccc2nc(N(C)CC(=O)O)cc(-c3ccc(C)cc3)c2c1` [2-{[6-butyl-4-(4-methylphenyl)quinolin-2-yl](methyl)amino}acetic acid] as the compound, how does the fold induction at 10 µM [1] read?
**A.** 1.36

**Q.** And the inhibition at 1085 µM (stock) [2]?
**A.** 30.8%

**Q.** Which results are given for `CCCCc1ccc2nc(N(C)CC(=O)O)cc(-c3cccnc3)c2c1` [2-{[6-butyl-4-(pyridin-3-yl)quinolin-2-yl](methyl)amino}acetic acid]?
**A.** fold induction at 10 µM [1]: 1.19; inhibition at 1085 µM (stock) [2]: 39.2%

**Q.** `CCCCc1ccc2nc(N(C)CC(=O)O)cc(-c3ccncc3)c2c1` [2-{[6-butyl-4-(pyridin-4-yl)quinolin-2-yl](methyl)amino}acetic acid] was tested. Which fold induction at 10 µM [1] did it give?
**A.** 1.28

**Q.** What about the inhibition at 1085 µM (stock) [2] of the same compound?
**A.** 15%

**Q.** For `CCCCCCc1ccc2nc(N(C)CC(=O)O)c(C)c(N3CCOCC3)c2c1` [2-{[6-hexyl-3-methyl-4-(morpholin-4-yl)quinolin-2-yl](methyl)amino}acetic acid], which fold induction at 10 µM [1] is on record?
**A.** 1.17

**Q.** What about the inhibition at 1085 µM (stock) [2] of the same compound?
**A.** 93.8%

**Q.** What does the source list for `CCCCCCc1ccc2nc(N(C)CC(=O)O)cc(N3CCOCC3)c2c1` [2-{[6-hexyl-4-(morpholin-4-yl)quinolin-2-yl](methyl)amino}acetic acid]?
**A.** fold induction at 10 µM [1]: 1.31; inhibition at 1085 µM (stock) [2]: 26.5%

**Q.** `CCCCCCc1ccc2nc(N(C)CC(=O)O)cc(-c3cccnc3)c2c1` [2-{[6-hexyl-4-(pyridin-3-yl)quinolin-2-yl](methyl)amino}acetic acid] was tested. Which fold induction at 10 µM [1] did it give?
**A.** 1.28

**Q.** And the inhibition at 1085 µM (stock) [2]?
**A.** 71.3%

**Q.** `CCCCCCc1ccc2nc(N(C)CC(=O)O)cc(Oc3cccnc3)c2c1` [2-{[6-hexyl-4-(pyridin-3-yloxy)quinolin-2-yl](methyl)amino}acetic acid] was tested. Which fold induction at 10 µM [1] did it give?
**A.** 1.33

**Q.** And the inhibition at 1085 µM (stock) [2]?
**A.** 85%

**Q.** Which results are given for `CCCCCCc1ccc2nc(N(C)CC(=O)O)cc(-c3ccncc3)c2c1` [2-{[6-hexyl-4-(pyridin-4-yl)quinolin-2-yl](methyl)amino}acetic acid]?
**A.** fold induction at 10 µM [1]: 1.17; inhibition at 1085 µM (stock) [2]: 51.4%

**Q.** Which fold induction at 10 µM [1] does the source give for `CCCCCCc1ccc2nc(OC(C)C(=O)O)cc(-c3ccncc3)c2c1` (stereo not shown) [2-{[6-hexyl-4-(pyridin-4-yl)quinolin-2-yl]oxy}propanoic acid] here?
**A.** 1.3

**Q.** And the inhibition at 1085 µM (stock) [2]?
**A.** 21%

**Q.** How did the fold induction at 10 µM [1] turn out when `CCCCCCc1ccc2nc(N(C)CC(=O)O)cc(Oc3ccncc3)c2c1` [2-{[6-hexyl-4-(pyridin-4-yloxy)quinolin-2-yl](methyl)amino}acetic acid] was run?
**A.** 1.02

**Q.** And the inhibition at 1085 µM (stock) [2]?
**A.** 10.7%

**Q.** For `CCCCCCc1ccc2nc(N(CC)CC(=O)O)cc(-c3ccc(F)cc3)c2c1` [2-{ethyl[4-(4-fluorophenyl)-6-hexylquinolin-2-yl]amino}acetic acid], which fold induction at 10 µM [1] is on record?
**A.** 1.27

**Q.** What about the inhibition at 1085 µM (stock) [2] of the same compound?
**A.** 78.3%

**Q.** Which results are given for `CCCCCCCCc1ccc2nc(N(CC)CC(=O)O)cc(-c3ccc(F)cc3)c2c1` [2-{ethyl[4-(4-fluorophenyl)-6-octylquinolin-2-yl]amino}acetic acid]?
**A.** fold induction at 10 µM [1]: 1.25; inhibition at 1085 µM (stock) [2]: 65.8%

**Q.** With `CCCCCOc1ccc2nc(N(C)CC(=O)O)cc(-c3ccccc3)c2c1` [2-{methyl [6-(pentyloxy)-4-phenylquinolin-2-yl]amino}acetic acid] as the compound, how does the fold induction at 10 µM [1] read?
**A.** 1.27

**Q.** And the inhibition at 1085 µM (stock) [2]?
**A.** 102%

**Q.** How did the fold induction at 10 µM [1] turn out when `CCCCCCCCc1ccc2nc(N(C)CC(=O)O)cc(Oc3cccnc3)c2c1` [2-{methyl [6-octyl-4-(pyridin-3-yloxy)quinolin-2-yl]amino}acetic acid] was run?
**A.** 1.47

**Q.** What about the inhibition at 1085 µM (stock) [2] of the same compound?
**A.** 83.6%

**Q.** With `CCCCCCCCc1ccc2nc(N(C)CC(=O)O)cc(Oc3ccncc3)c2c1` [2-{methyl [6-octyl-4-(pyridin-4-yloxy)quinolin-2-yl]amino}acetic acid] as the compound, how does the fold induction at 10 µM [1] read?
**A.** 1.14

**Q.** And the inhibition at 1085 µM (stock) [2]?
**A.** 19.4%

**Q.** What does the source list for `CN(CC(=O)O)c1cc(-c2ccccc2)c2cc(CCc3ccnc4[nH]ccc34)ccc2n1` [2-{methyl[4-phenyl-6-(2-{1H-pyrrolo[2,3-b]pyridin-4-yl}ethyl)quinolin-2-yl]amino}acetic acid]?
**A.** fold induction at 10 µM [1]: 1.26; inhibition at 1085 µM (stock) [2]: 29.8%

**Q.** With `CN(CC(=O)O)c1cc(-c2ccccc2)c2cc(CCCc3ccccc3)ccc2n1` [2-{methyl[4-phenyl-6-(3-phenylpropyl)quinolin-2-yl]amino}acetic acid] as the compound, how does the fold induction at 10 µM [1] read?
**A.** 1.31

**Q.** And the inhibition at 1085 µM (stock) [2]?
**A.** 97%

**Q.** What does the source list for `CCCc1cccc(-c2ccc3nc(N(C)CC(=O)O)cc(-c4ccccc4)c3c2)c1` [2-{methyl[4-phenyl-6-(3-propylphenyl)quinolin-2-yl]amino}acetic acid]?
**A.** fold induction at 10 µM [1]: 1.07; inhibition at 1085 µM (stock) [2]: 61.2%

**Q.** Which fold induction at 10 µM [1] does the source give for `CCCCc1ccc2nc(N(C)CC(C)C(=O)O)cc(-c3ccccc3)c2c1` (stereo not shown) [3-[(6-butyl-4-phenylquinolin-2-yl)(methyl)amino]-2-methylpropanoic acid] here?
**A.** 1.34

**Q.** What about the inhibition at 1085 µM (stock) [2] of the same compound?
**A.** 74.7%

**Q.** How did the fold induction at 10 µM [1] turn out when `CCCCc1ccc2nc(N(C)C(C)CC(=O)O)cc(-c3ccccc3)c2c1` (stereo not shown) [3-[(6-butyl-4-phenylquinolin-2-yl)(methyl)amino]butanoic acid] was run?
**A.** 1.04

**Q.** What about the inhibition at 1085 µM (stock) [2] of the same compound?
**A.** 103%

**Q.** Which fold induction at 10 µM [1] does the source give for `CCCCCCc1ccc2nc(N(C)CC(C)C(=O)O)cc(-c3ccccc3)c2c1` (stereo not shown) [3-[(6-hexyl-4-phenylquinolin-2-yl)(methyl)amino]-2-methylpropanoic acid] here?
**A.** 1.31

**Q.** What about the inhibition at 1085 µM (stock) [2] of the same compound?
**A.** 89.7%

**Q.** With `CCCCCCc1ccc2nc(N(C)CC(C)C(=O)O)cc(-c3cccc(C#N)c3)c2c1` (stereo not shown) [3-{[4-(3-cyanophenyl)-6-hexylquinolin-2-yl](methyl)amino}-2-methylpropanoic acid] as the compound, how does the fold induction at 10 µM [1] read?
**A.** 1.3

**Q.** And the inhibition at 1085 µM (stock) [2]?
**A.** 56.5%

**Q.** What does the source list for `CCCCCCc1ccc2nc(N(C)C(C)CC(=O)O)cc(-c3cccc(C#N)c3)c2c1` (stereo not shown) [3-{[4-(3-cyanophenyl)-6-hexylquinolin-2-yl](methyl)amino}butanoic acid]?
**A.** fold induction at 10 µM [1]: 1.03; inhibition at 1085 µM (stock) [2]: 77.9%

**Q.** With `CCCCCCc1ccc2nc(N(C)CC(C)C(=O)O)cc(-c3ccc(F)cc3)c2c1` (stereo not shown) [3-{[4-(4-fluorophenyl)-6-hexylquinolin-2-yl](methyl)amino}-2-methylpropanoic acid] as the compound, how does the fold induction at 10 µM [1] read?
**A.** 1.31

**Q.** And the inhibition at 1085 µM (stock) [2]?
**A.** 92.3%

**Q.** With `CCCCc1ccc2nc(N(C)CC(C)C(=O)O)cc(-c3cccc(C#N)c3)c2c1` (stereo not shown) [3-{[6-butyl-4-(3-cyanophenyl)quinolin-2-yl](methyl)amino}-2-methylpropanoic acid] as the compound, how does the fold induction at 10 µM [1] read?
**A.** 1.21

**Q.** What about the inhibition at 1085 µM (stock) [2] of the same compound?
**A.** 38.7%

**Q.** Which results are given for `CCCCc1ccc2nc(N(C)CC(C)C(=O)O)cc(-c3ccc(F)cc3)c2c1` (stereo not shown) [3-{[6-butyl-4-(4-fluorophenyl)quinolin-2-yl](methyl)amino}-2-methylpropanoic acid]?
**A.** fold induction at 10 µM [1]: 1.34; inhibition at 1085 µM (stock) [2]: 74%
